Experiments:
Assay type in all cases: cell-based
EGFR L858R (Ba/F3 cells) [1] = biological target: T1, EGFR L858R (Ba/F3 cells) (Homo sapiens, UniProt P00533, L858R); experiment: Inhibitor activity on EGFR-dependent cell growth (CellTiter-Glo, 72 h), Ba/F3 EGFR L858R; details: read-out: BaF3 L858R IC50
T1 construct: expressed in transfected cells; host or cells: Ba/F3 (murine pro-B cells), retroviral transduction, puromycin selection, IL3-independent pool
How it was run: (§1)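 Ba/F3, retrovirally transduced, puromycin-selected, grown without IL3; cells/well: L858R 400, L858R/C797S 600, exon 19del 800, FQEA 800. Cpds from 10 mM DMSO stock, 3-fold ×10 dilution, 120 nL per well; 72 h. CTG readout; IC50 via Hill equation.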

[2] = biological target: T2, EGFR exon 19del (Ba/F3 cells) (Homo sapiens, UniProt P00533); experiment: Inhibitor activity on EGFR-dependent cell growth (CellTiter-Glo, 72 h), Ba/F3 EGFR exon 19del; details: Ba/F3 EGFR exon 19del cell growth, read-out: BaF3 Del19 IC50
How it was run: as §1

[3] = biological target: T3, EGFR L858R/C797S (Ba/F3 cells) (Homo sapiens, UniProt P00533, C797S/L858R); experiment: Inhibitor activity on EGFR-dependent cell growth (CellTiter-Glo, 72 h), Ba/F3 EGFR L858R/C797S; details: read-out: BaF3 L858R/C797S IC50
T3 construct: expressed in transfected cells; host or cells: Ba/F3 (murine pro-B cells), retroviral transduction, puromycin selection, IL3-independent pool
Excerpt: Example A. Inhibitor Activity on EGFR-Dependent Cell Growth
Cell lines are generated by transducing Ba/F3 cells with retroviruses containing vectors with EGFR WT, EGFR L858R, EGFR exon 19del, EGFR L858R/C797S, EGFR exon 20 NPG Ins D770_N771, EGFR exon 20 ASV Ins V769_D770, EGFR exon 20 SVD Ins D770_N771, or EGFR exon 20 FQEA Ins A763_V764 genes and a puromycin selection marker. Transduced cells are selected with puromycin for 7 days and are then be transferred into culture media without Interleukin 3 (IL3). EGFR WT cells are maintained with supplemental EGF. Surviving cells are confirmed to express EGFR by Western blot and maintained as a pool. The IC50 date were included in Table 6 and Table 7.
(§2) 1.1 Cells are harvested from flask into cell culture medium and the cell number counted.
1.2 Cells are diluted with culture medium to the desired density and 40 μL of cell suspension is added into each well of 384-well cell culture plate and the seeding density is 800 (FQEA, exon 19del), 600 (WT, NPG, L858R/C797S), or 400 (ASV, SVD, L858R) cells/well.
(§3) 2 Compound Preparation and Treatment
(§4) 2.1 Test compounds are dissolved to 10 mM in a DMSO stock solution. 45 μL of stock solution is transferred to a 384 polypropylene plate (pp-plate). Perform 3-fold, 10-point dilution via transferring 15 μL compound into 30 μL DMSO using a TECAN (EVO200) liquid handler.
(§5) 2.2 Spin plates at room temperature at 1,000 RPM for 1 minute.
2.3 Transfer 120 nL of diluted compound from compound source plate into the cell plate.
2.4 After compound treatment for 72 hours, perform CTG detection for compound treatment plates as described in “Detection” section.
3.1 Plates are removed from incubators and equilibrated at room temperature for 15 minutes.
3.2 Thaw the CellTiter Glo reagents and allow to equilibrate to room temperature before the experiment.
3.3 Add 40 μL of CellTiter-Glo reagent into each well (at 1:1 to culture medium). Then place the plates at room temperature for 30 min followed by reading on EnVision.
4.1 Inhibition activity is calculated following the formula below:
% Inhibition=100×(LumHC−LumSample)/(LumHC−LumLC) • where HC is obtained from cells treated with 0.1% DMSO only; and LC is obtained from culture medium only.
4.2 2. Calculate the IC50 by fitting the Curve using Xlfit (v5.3.1.3), equation 201.
Y=Bottom+(Top−Bottom)/(1+10^((Log IC50−X)*HillSlope))

EGFR L858R (Ba/F3 cells) [4] = biological target: T1, EGFR L858R (Ba/F3 cells); experiment: Inhibitor activity on EGFR phosphorylation (pEGFR AlphaLISA, 2 h), Ba/F3 EGFR L858R
Excerpt: (§6) Example B. Inhibitor Activity on EGFR phosphorylation (pEGFR)
(§7) EGFR mutant Ba/F3 cells were generated by transduction with retrovirus containing vectors expressing EGFR L858R, EGFR exon 19del, EGFR L858R/C797S, EGFR exon 20 NPG Ins D770_N771, EGFR exon 20 ASV Ins V769_D770, or EGFR exon 20 SVD Ins D770_N771 genes along with a puromycin selection marker. Transduced cells are selected with puromycin for 7 days and are then be transferred into culture media without Interleukin 3 (IL3). Surviving cells are confirmed to express EGFR by Western blot and maintained as a pool. CUTO14 cells were obtained from Dr. Robert C. Doebele at the University of Colorado. The IC50 date are included in Table 6 and Table 7.
as §2
(§8) 1.2 Cells are diluted with culture medium to the desired density and 40 μL of cell suspension is added into each well of 384-well cell culture plate and the seeding density is 50K cells/well (Ba/F3) or 12.5K cells/well (CUTO14).
as §3, §4, §5
(§9) 2.3 Transfer 5 nL of diluted compound from compound source plate into the cell plate.
(§10) 2.4 After compound treatment for 2 hours, perform pEGFR detection by AlphaLISA for compound treatment plates as described in “Detection” section.
(§11) 3 Detection by pEGFR AlphaLISA (Perkin-Elmer)
(§12) 3.1 Plates are removed from incubators and equilibrated at room temperature for 10 minutes, and media was removed
(§13) 3.2 10 μL of lysis buffer is added and plates shaken at 600 rpm for 1 hr.
(§14) 3.3 Prepare acceptor mix just before use and dispense 5 μL of acceptor mix to all the wells. Shake 350 rpm for Ihr in the dark
(§15) 3.4 Prepare donor mix under low light conditions prior to use. Dispense 5 μL of donor mix to all the wells. Mix well on the shaker, seal and wrap in aluminum foil and incubate 1.5 hrs at room temperature in the dark
(§16) 3.5 Transfer 18.5 μL mixture to OptiPlate 384, and read using an Envision. The IC50 date were included in Table 6 and Table 7.

[5] = biological target: T2, EGFR exon 19del (Ba/F3 cells); experiment: Inhibitor activity on EGFR phosphorylation (pEGFR AlphaLISA, 2 h), Ba/F3 EGFR exon 19del; details: read-out: Del19 IC50 (pEGFR)
Excerpt: as §6, §7, §2, §8, §3, §4, §5, §9, §10, §11, §12, §13, §14, §15, §16

[6] = biological target: T3, EGFR L858R/C797S (Ba/F3 cells); experiment: Inhibitor activity on EGFR phosphorylation (pEGFR AlphaLISA, 2 h), Ba/F3 EGFR L858R/C797S
Excerpt: as §6, §7, §2, §8, §3, §4, §5, §9, §10, §11, §12, §13, §14, §15, §16

EGFR WT (Ba/F3 cells) = biological target: T4, EGFR WT (Ba/F3 cells) (Homo sapiens, UniProt P00533); experiment: Inhibitor activity on EGFR-dependent cell growth (CellTiter-Glo, 72 h), Ba/F3 EGFR WT; details: read-out: BaF3 WT IC50
T4 construct: expressed in transfected cells; host or cells: Ba/F3 (murine pro-B cells), retroviral transduction, puromycin selection, maintained with EGF
How it was run: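 This growth assay used Ba/F3 cells that depend on wild-type EGFR and are kept in EGF without IL3. Compounds were made up as 10 mM DMSO stocks and diluted 3-fold over 10 points. 120 nL went onto 600 cells/well. After 72 hours, 40 μL CellTiter-Glo was added and luminescence read on EnVision after 30 min.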

[7] = biological target: T5, EGFR exon 20 NPG Ins D770_N771 (Ba/F3 cells) (Homo sapiens, UniProt P00533, INS770NPG); experiment: Inhibitor activity on EGFR-dependent cell growth (CellTiter-Glo, 72 h), Ba/F3 EGFR exon 20 NPG Ins; details: read-out: BaF3 NPG IC50
T5 construct: expressed in transfected cells; host or cells: Ba/F3 (murine pro-B cells), retroviral transduction, puromycin selection, IL3-independent pool
How it was run: (§17)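 IC50s derive from a sigmoidal dose–response fit of CellTiter-Glo signal. The signal was normalised between […]-treated cells and cell-free medium. Ba/F3 mutant-EGFR cells, seeded at 400–800/well depending on the line, had 72 h of exposure to a 10-point, 3-fold compound series.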

[8] = biological target: T6, EGFR exon 20 ASV Ins V769_D770 (Ba/F3 cells) (Homo sapiens, UniProt P00533, INS769ASV); experiment: Inhibitor activity on EGFR-dependent cell growth (CellTiter-Glo, 72 h), Ba/F3 EGFR exon 20 ASV Ins; details: read-out: BaF3 ASV IC50
T6 construct: expressed in transfected cells; host or cells: Ba/F3 (murine pro-B cells), retroviral transduction, puromycin selection, IL3-independent pool
How it was run: as §17

[9] = biological target: T7, EGFR exon 20 SVD Ins D770_N771 (Ba/F3 cells) (Homo sapiens, UniProt P00533, INS770SVD); experiment: Inhibitor activity on EGFR-dependent cell growth (CellTiter-Glo, 72 h), Ba/F3 EGFR exon 20 SVD Ins; details: read-out: BaF3 SVD IC50
T7 construct: expressed in transfected cells; host or cells: Ba/F3 (murine pro-B cells), retroviral transduction, puromycin selection, IL3-independent pool
How it was run: as §17

[10] = biological target: T8, EGFR exon 20 FQEA Ins A763_V764 (Ba/F3 cells) (Homo sapiens, UniProt P00533, INS763FQEA); experiment: Inhibitor activity on EGFR-dependent cell growth (CellTiter-Glo, 72 h), Ba/F3 EGFR exon 20 FQEA Ins; details: read-out: BaF3 FQEA IC50
T8 construct: expressed in transfected cells; host or cells: Ba/F3 (murine pro-B cells), retroviral transduction, puromycin selection, IL3-independent pool
How it was run: as §1

EGFR (CUTO14 cells) = EGFR (CUTO14 cells) (Homo sapiens, UniProt P00533); experiment: Inhibitor activity on EGFR phosphorylation (pEGFR AlphaLISA, 2 h), CUTO14 cells
How it was run: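 After a 2-hour exposure to compound (3-fold, 10-point series from 10 mM DMSO stock), cell lysates were assayed for pEGFR by AlphaLISA. Cells were retrovirally engineered, IL3-independent Ba/F3 lines expressing each EGFR mutant at 50K/well, or CUTO14 cells at 12.5K/well, giving IC50 values.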

T8 sequence (P00533 with tags, fused parts or gaps INS763FQEA): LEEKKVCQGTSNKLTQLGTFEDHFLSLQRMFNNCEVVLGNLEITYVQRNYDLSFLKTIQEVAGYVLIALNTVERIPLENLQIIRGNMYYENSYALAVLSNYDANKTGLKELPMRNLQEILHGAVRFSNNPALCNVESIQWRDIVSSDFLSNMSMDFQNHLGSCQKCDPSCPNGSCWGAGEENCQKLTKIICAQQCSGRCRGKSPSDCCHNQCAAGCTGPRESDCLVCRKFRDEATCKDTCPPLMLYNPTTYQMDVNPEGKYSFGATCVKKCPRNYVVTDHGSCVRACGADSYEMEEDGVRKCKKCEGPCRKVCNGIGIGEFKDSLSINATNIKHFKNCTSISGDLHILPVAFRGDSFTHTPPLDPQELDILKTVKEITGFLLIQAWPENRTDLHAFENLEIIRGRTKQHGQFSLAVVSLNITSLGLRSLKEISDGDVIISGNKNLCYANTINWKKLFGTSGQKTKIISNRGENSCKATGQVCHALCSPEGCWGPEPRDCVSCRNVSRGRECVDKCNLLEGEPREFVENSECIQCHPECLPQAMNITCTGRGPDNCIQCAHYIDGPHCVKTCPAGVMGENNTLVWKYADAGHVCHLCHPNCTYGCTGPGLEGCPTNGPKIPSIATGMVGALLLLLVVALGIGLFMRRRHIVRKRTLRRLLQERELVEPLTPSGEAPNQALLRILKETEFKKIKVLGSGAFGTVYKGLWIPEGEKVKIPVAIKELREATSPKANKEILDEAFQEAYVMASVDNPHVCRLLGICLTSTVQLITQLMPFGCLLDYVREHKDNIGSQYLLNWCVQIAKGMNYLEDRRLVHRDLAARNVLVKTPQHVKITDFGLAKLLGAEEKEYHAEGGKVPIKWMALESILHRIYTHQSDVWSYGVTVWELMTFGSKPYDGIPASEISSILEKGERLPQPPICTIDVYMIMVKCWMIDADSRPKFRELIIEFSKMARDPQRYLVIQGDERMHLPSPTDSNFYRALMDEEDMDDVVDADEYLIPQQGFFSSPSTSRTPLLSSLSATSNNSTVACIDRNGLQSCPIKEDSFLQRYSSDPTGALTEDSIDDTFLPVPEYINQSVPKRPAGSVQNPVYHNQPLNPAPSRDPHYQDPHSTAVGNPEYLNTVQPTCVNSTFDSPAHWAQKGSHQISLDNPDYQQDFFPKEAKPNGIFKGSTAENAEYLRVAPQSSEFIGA
T4 sequence (P00533 25-1210): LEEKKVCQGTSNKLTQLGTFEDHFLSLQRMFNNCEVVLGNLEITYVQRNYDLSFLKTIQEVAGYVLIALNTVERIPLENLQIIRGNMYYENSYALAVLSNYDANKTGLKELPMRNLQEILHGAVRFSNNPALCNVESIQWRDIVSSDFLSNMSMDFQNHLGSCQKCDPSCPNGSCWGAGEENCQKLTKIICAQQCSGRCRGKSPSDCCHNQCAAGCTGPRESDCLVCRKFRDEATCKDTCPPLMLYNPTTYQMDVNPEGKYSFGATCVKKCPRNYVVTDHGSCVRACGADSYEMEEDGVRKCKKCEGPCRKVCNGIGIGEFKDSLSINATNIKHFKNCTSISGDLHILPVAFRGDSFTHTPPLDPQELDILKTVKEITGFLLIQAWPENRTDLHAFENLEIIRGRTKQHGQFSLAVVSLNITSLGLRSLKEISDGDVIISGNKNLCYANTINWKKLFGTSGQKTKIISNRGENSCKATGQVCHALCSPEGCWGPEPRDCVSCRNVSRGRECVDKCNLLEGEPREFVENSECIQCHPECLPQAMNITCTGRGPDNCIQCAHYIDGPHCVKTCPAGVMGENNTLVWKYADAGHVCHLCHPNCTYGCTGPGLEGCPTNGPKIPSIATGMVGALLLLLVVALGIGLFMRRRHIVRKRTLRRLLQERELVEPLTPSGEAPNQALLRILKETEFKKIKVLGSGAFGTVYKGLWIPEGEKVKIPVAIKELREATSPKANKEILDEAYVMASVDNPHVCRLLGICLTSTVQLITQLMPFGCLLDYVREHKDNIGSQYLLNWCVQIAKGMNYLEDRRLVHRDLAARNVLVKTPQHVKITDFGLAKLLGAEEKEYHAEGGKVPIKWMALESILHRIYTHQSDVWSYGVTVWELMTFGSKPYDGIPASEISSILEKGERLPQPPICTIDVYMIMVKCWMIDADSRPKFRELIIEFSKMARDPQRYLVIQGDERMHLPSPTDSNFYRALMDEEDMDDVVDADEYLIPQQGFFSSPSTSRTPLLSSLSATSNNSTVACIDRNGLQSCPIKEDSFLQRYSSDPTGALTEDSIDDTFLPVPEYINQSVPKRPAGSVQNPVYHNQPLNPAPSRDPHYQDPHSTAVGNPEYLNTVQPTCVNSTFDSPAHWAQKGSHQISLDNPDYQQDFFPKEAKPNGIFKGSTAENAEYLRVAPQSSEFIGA
T2 sequence (P00533 with tags, fused parts or gaps DEL746-750): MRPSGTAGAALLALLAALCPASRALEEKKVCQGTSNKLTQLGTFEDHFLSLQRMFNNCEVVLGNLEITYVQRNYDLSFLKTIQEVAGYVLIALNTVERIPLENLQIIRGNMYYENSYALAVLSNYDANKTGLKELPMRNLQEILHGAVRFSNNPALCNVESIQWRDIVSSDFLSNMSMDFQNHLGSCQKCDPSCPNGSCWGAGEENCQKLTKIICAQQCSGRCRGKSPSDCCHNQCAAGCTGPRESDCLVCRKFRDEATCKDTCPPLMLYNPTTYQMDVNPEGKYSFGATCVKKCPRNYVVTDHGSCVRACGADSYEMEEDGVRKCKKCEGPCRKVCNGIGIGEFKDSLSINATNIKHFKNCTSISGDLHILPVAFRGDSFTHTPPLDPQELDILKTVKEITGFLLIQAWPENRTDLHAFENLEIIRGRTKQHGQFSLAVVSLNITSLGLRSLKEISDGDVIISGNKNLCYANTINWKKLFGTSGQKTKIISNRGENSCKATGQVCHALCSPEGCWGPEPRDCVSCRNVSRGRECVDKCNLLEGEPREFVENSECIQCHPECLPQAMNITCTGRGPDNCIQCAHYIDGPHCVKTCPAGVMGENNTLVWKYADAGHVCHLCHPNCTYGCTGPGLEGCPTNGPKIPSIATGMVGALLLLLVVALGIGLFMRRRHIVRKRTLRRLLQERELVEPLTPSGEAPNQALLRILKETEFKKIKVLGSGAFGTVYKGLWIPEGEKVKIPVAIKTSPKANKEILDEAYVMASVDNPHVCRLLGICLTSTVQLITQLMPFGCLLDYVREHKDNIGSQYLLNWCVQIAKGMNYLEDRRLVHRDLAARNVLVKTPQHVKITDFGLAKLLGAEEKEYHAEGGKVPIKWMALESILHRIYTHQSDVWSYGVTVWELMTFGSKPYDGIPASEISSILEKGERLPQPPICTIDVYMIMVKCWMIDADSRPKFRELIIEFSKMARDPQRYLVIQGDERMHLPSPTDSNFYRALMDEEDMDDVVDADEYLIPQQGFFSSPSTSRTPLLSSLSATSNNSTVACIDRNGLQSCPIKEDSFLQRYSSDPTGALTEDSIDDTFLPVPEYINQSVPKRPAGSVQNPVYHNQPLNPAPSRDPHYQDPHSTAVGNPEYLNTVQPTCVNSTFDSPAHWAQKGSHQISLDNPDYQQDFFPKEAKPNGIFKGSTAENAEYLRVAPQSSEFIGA
T3 sequence (P00533 25-1210 C797S/L858R): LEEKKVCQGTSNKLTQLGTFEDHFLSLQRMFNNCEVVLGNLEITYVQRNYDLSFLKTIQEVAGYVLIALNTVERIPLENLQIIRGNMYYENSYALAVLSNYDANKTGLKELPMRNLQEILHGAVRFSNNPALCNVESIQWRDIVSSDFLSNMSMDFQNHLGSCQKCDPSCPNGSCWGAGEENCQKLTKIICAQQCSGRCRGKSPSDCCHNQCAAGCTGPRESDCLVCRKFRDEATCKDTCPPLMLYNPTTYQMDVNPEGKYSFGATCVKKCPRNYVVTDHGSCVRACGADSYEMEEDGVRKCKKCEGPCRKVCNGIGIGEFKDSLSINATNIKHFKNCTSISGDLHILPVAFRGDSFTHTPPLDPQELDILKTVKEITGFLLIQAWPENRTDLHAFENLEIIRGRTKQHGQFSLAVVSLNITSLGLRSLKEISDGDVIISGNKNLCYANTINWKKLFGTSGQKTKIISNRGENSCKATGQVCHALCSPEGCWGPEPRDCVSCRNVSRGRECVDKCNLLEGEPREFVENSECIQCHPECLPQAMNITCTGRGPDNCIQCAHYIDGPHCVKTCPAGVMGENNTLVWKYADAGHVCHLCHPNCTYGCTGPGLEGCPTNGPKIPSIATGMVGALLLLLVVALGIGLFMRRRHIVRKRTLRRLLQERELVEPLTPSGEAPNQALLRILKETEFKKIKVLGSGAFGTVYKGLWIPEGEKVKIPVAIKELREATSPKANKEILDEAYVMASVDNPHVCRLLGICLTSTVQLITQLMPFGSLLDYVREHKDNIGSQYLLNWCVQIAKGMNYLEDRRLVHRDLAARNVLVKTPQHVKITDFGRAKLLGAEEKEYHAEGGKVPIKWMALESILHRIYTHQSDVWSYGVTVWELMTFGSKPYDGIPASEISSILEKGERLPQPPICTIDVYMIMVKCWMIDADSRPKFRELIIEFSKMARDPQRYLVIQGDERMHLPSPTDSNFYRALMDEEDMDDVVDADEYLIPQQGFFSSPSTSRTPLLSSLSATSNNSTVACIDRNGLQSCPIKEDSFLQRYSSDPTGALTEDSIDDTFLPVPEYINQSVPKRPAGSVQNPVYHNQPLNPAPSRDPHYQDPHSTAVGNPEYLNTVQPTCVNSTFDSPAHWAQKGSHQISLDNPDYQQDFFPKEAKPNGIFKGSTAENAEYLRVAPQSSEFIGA

IC50 (EGFR L858R (Ba/F3 cells) [1])	IC50 [2]	IC50 [3]	IC50 (EGFR L858R (Ba/F3 cells) [4])	IC50 [5]	IC50 [6]	IC50 (EGFR WT (Ba/F3 cells))	IC50 [7]	IC50 [8]	IC50 [9]	IC50 [10]	IC50 (EGFR (CUTO14 cells))	Structure (SMILES)
< 0.1 µM	< 0.1 µM	< 0.1 µM	< 0.1 µM	< 0.1 µM	< 0.1 µM	< 0.1 µM	< 0.1 µM	< 0.1 µM	< 0.1 µM	< 0.1 µM		COc1c(F)cccc1Nc1c(-c2ccnc3ccc(OC4(C)COC4)nc23)[nH]c2c1C(=O)NCC2 [Compound 788, 3-[(3-fluoro-2-methoxyphenyl)amino]-2-[6-[(3-methyloxetan-3-yl)oxy]-1,5-naphthyridin-4-yl]-1H,5H,6H,7H-pyrrolo[3,2-c]pyridin-4-one]
< 0.1 µM	< 0.1 µM	< 0.1 µM	< 0.1 µM	< 0.1 µM	< 0.1 µM	0.1 to 1 µM	< 0.1 µM			< 0.1 µM	< 0.1 µM	COc1c(Cl)cccc1Nc1c(-c2ccncn2)[nH]c2c1C(=O)NC[C@H]2C[C@@H]1COCCO1 [Compound 568, (7R)-3-[(3-chloro-2-methoxyphenyl)amino]-7-[(2R)-1,4-dioxan-2-ylmethyl]-2-(pyrimidin-4-yl)-1H,5H,6H,7H-pyrrolo[3,2-c]pyridin-4-one]
< 0.1 µM	< 0.1 µM	< 0.1 µM	< 0.1 µM	< 0.1 µM	< 0.1 µM	0.1 to 1 µM	< 0.1 µM	< 0.1 µM	< 0.1 µM	< 0.1 µM		COc1c(Cl)cccc1Nc1c(-c2ccnc3ccc(C)nc23)[nH]c2c1C(=O)NCC2 [compound 749, 3-[(3-chloro-2-methoxyphenyl)amino]-2-(6-methyl-1,5-naphthyridin-4-yl)-1H,5H,6H,7H-pyrrolo[3,2-c]pyridin-4-one]
< 0.1 µM	< 0.1 µM	< 0.1 µM	< 0.1 µM	< 0.1 µM	< 0.1 µM	0.1 to 1 µM	< 0.1 µM			< 0.1 µM		COc1c(Cl)cccc1Nc1c(-c2ccncc2F)[nH]c2c1C(=O)NC[C@H]2CC1COCCO1 (stereo in doubt) [Compound 480, (7R)-3-[(3-chloro-2-methoxyphenyl)amino]-7-[(2R)-1,4-dioxan-2-ylmethyl]-2-(3-fluoropyridin-4-yl)-1H,5H,6H,7H-pyrrolo[3,2-c]pyridin-4-one]
